In patent US11793823B2, “Compounds and pharmaceutical uses thereof” (SyneuRx International (Taiwan) Corp., priority 2020, dated 2023):
pIC50: −log10 of the molar value. Where a name gives a salt, the structure may show the parent alone.

target: human D-amino acid oxidase (hDAAO) (Homo sapiens (Human), UniProt P14920); assay: In vitro human D-amino acid oxidase (hDAAO) activity, D-Serine/Amplex Red fluorescence; type: biochemical; conditions: D-Serine substrate, 20 min
Experimental: The hDAAO inhibitory activities were measured by using D-Serine as a substrate to produce H2O2. The produced H2O2 would be oxidized by peroxidase, and the produced free radicals would further react with Amplex Red reagent to emit fluorescence. The intensity of fluorescence at 590 nm would be measured to represent the activity of hDAAO. All compounds were dissolved in DMSO. Each compound was diluted with DMSO in 3-fold serial dilution to create a dose response curve. Each sample was added in triplicate, 1 µL/well, into 96-well black plates. Positive control wells were added with 1 μL of DMSO. Then 49 μL of assay buffer (100 mM Tris-HCl, pH 8.5) containing 1.2 ng/mL hDAAO, 900 nM FAD, 0.2 units/mL HRP, and 100 μM Amplex Red was added to each well of the plate using a multichannel pipette. Next, 50 μL of 100 mM D-Serine in assay buffer was added. The reaction plates were then incubated in the dark at room temperature. The fluorescence readout was detected at 0 and 20 mins by Molecular Device Gemini EM fluorescence reader using the following settings: excitation filter 530 nm, and emission filter 590 nm. The percentage of inhibition values for each well was calculated with the following equation: The percentage of inhibition=(fluorescence sample, 20 min−fluorescence sample, 0 min)/(fluorescence DMSO, 20 min−fluorescence DMSO, 0 min)×100%
The nonlinear curve fitting model in GraphPad Prism was used to calculate IC50 value for each compound.

Chain of human D-amino acid oxidase (hDAAO) (P14920 whole entry): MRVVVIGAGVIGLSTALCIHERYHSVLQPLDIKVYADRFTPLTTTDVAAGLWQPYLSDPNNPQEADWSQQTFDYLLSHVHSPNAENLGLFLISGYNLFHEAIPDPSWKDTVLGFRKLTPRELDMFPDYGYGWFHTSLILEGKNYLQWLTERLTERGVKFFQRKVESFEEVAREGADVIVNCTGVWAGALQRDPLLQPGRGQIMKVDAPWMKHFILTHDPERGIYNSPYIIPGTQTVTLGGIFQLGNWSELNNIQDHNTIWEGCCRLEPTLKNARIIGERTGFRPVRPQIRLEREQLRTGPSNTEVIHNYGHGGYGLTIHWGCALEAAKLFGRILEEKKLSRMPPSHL

First: O=C(O)c1cc(O)c(O)c(OC(=O)c2cc(O)c(O)c(OC(=O)c3cc(O)c(O)c(OC(=O)c4cc(O)c(O)c(OC(=O)c5cc(O)c(O)c(OC(=O)c6cc(CCc7cccc8c7CCCC8)n[nH]6)c5)c4)c3)c2)c1 [Compound 42, 3-((3-((3-((3-((3,4-dihydroxy-5-((3-(2-(5,6,7,8-tetrahydronaphthalen-1-yl)ethyl)-1H-pyrazole-5-carbonyl)oxy)benzoyl)oxy)-4,5-dihydroxybenzoyl)oxy)-4,5-dihydroxybenzoyl)oxy)-4,5-dihydroxybenzoyl)oxy)-4,5-dihydroxybenzoic acid]
Second: O=C(Oc1cc(C(=O)O[C@H]2OC[C@@H](OC(=O)c3cc(O)c(O)c(OC(=O)c4cc(O)c(O)c(O)c4)c3)[C@H](OC(=O)c3cc(O)c(O)c(OC(=O)c4cc(O)c(O)c(O)c4)c3)[C@H]2OC(=O)c2cc(O)c(O)c(OC(=O)c3cc(O)c(O)c(O)c3)c2)cc(O)c1O)c1cc(O)c(O)c(O)c1 [Compound 117, (2R,3R,4S,5R)-tetrahydro-2H-pyran-2,3,4,5-tetrayl tetrakis(3,4-dihydroxy-5-((3,4,5-trihydroxybenzoyl)oxy)benzoate)]
The pIC50 of the first is 0.54 log units lower: 7.51 for the first, 8.05 for the second. The second is the more potent here.

Going from “3-((3-((3-((3-((3-((3-((3-((1H-pyrrole-2-carbonyl)oxy)-4,5-dihydroxybenzoyl)oxy)-4,5-dihydroxybenzoyl)oxy)-4,5-dihydroxybenzoyl)oxy)-4,5-dihydroxybenzoic acid [Compound 28]” to `O=C(Oc1cccnc1)c1cc(O)c(O)c(OC(=O)c2cc(O)c(O)c(OC(=O)c3cc(O)c(O)c(OC(=O)c4cc(O)c(O)c(OC(=O)c5cc(O)c(O)c(O)c5)c4)c3)c2)c1` [Compound 94, 5-((5-((5-((2,3-dihydroxy-5-((pyridin-3-yloxy)carbonyl)phenoxy)carbonyl)-2,3-dihydroxyphenoxy)carbonyl)-2,3-dihydroxyphenoxy)carbonyl)-2,3-dihydroxyphenyl 3,4,5-trihydroxybenzoate hydrochloride salt], the pIC50 rises from 7.09 to 7.38 (0.29 log units). The second is the more potent here.

First: O=C(Oc1cc(C(=O)Oc2cc(C(=O)Oc3cc(C(=O)Oc4cc(C(=O)OC5CCCCCC5)cc(O)c4O)cc(O)c3O)cc(O)c2O)cc(O)c1O)c1cc(O)c(O)c(O)c1 [Compound 100, cycloheptyl 3-((3-((3-((3,4-dihydroxy-5-((3,4,5-trihydroxybenzoyl)oxy)benzoyl)oxy)-4,5-dihydroxybenzoyl)oxy)-4,5-dihydroxybenzoyl)oxy)-4,5-dihydroxybenzoate]
Second: O=C(OC[C@H]1O[C@H](OC(=O)c2cc(O)c(O)c(OC(=O)c3cc(O)c(O)c(O)c3)c2)[C@H](OC(=O)c2cc(O)c(O)c(OC(=O)c3cc(O)c(O)c(O)c3)c2)[C@@H]1OC(=O)c1cc(O)c(O)c(OC(=O)c2cc(O)c(O)c(O)c2)c1)c1cc(O)c(O)c(OC(=O)c2cc(O)c(O)c(O)c2)c1 [Compound 134, (2R,3R,4R,5R)-5-(((3,4-dihydroxy-5-((3,4,5-trihydroxybenzoyl)oxy)benzoyl)oxy)methyl)tetrahydrofuran-2,3,4-triyl tris(3,4-dihydroxy-5-((3,4,5-trihydroxybenzoyl)oxy)benzoate)]
The pIC50 of the first is 0.38 log units lower: 7.72 for the first, 8.10 for the second.

Compared with `O=C(Oc1cc(C(=O)Oc2cc(C(=O)O[C@@H]3OC[C@@H](OC(=O)c4cc(O)c(O)c(OC(=O)c5cc(O)c(O)c(OC(=O)c6cc(O)c(O)c(O)c6)c5)c4)[C@H](OC(=O)c4cc(O)c(O)c(OC(=O)c5cc(O)c(O)c(OC(=O)c6cc(O)c(O)c(O)c6)c5)c4)[C@H]3OC(=O)c3cc(O)c(O)c(OC(=O)c4cc(O)c(O)c(OC(=O)c5cc(O)c(O)c(O)c5)c4)c3)cc(O)c2O)cc(O)c1O)c1cc(O)c(O)c(O)c1` [Compound 126, (2S,3R,4S,5R)-tetrahydro-2H-pyran-2,3,4,5-tetrayl tetrakis(3-((3,4-dihydroxy-5-((3,4,5-trihydroxybenzoyl)oxy)benzoyl)oxy)-4,5-dihydroxybenzoate)], `O=C(Oc1cc(C(=O)Oc2cc(C(=O)Oc3cc(C(=O)Oc4cc(C(=O)OC5CCCCC5)cc(O)c4O)cc(O)c3O)cc(O)c2O)cc(O)c1O)c1cc(O)c(O)c(O)c1` [Compound 96, Cyclohexyl 3-((3-((3-((3,4-dihydroxy-5-((3,4,5-trihydroxybenzoyl)oxy)benzoyl)oxy)-4,5-dihydroxybenzoyl)oxy)-4,5-dihydroxybenzoyl)oxy)-4,5-dihydroxybenzoate] is 0.85 log units lower in pIC50: 8.44 for the first, 7.59 for the second.

Going from `O=C(OC[C@H]1O[C@@H](OC(=O)c2cc(O)c(O)c(OC(=O)c3cc(O)c(O)c(O)c3)c2)[C@H](OC(=O)c2cc(O)c(O)c(OC(=O)c3cc(O)c(O)c(O)c3)c2)[C@@H]1OC(=O)c1cc(O)c(O)c(OC(=O)c2cc(O)c(O)c(O)c2)c1)c1cc(O)c(O)c(OC(=O)c2cc(O)c(O)c(O)c2)c1` [Compound 142, (2S,3R,4R,5R)-5-(((3,4-dihydroxy-5-((3,4,5-trihydroxybenzoyl)oxy)benzoyl)oxy)methyl)tetrahydrofuran-2,3,4-triyl tris(3,4-dihydroxy-5-((3,4,5-trihydroxybenzoyl)oxy)benzoate)] to `O=C(O)c1cc(O)c(O)c(OC(=O)c2cc(O)c(O)c(OC(=O)c3cc(O)c(O)c(OC(=O)c4cc(O)c(O)c(OC(=O)c5cc(O)c(O)c(OC(=O)c6cc(CCc7ccc(F)cc7)n[nH]6)c5)c4)c3)c2)c1` [Compound 50, 3-((3-((3-((3-((3-((3-(4-fluorophenethyl)-1H-pyrazole-5-carbonyl)oxy)-4,5-dihydroxybenzoyl)oxy)-4,5-dihydroxybenzoyl)oxy)-4,5-dihydroxybenzoyl)oxy)-4,5-dihydroxybenzoyl)oxy)-4,5-dihydroxybenzoic acid], the pIC50 falls from 7.72 to 7.42 (0.30 log units).

`O=C(Oc1cc(C(=O)Oc2cc(C(=O)O[C@H]3OC[C@@H](OC(=O)c4cc(O)c(O)c(OC(=O)c5cc(O)c(O)c(OC(=O)c6cc(O)c(O)c(O)c6)c5)c4)[C@H](OC(=O)c4cc(O)c(O)c(OC(=O)c5cc(O)c(O)c(OC(=O)c6cc(O)c(O)c(O)c6)c5)c4)[C@H]3OC(=O)c3cc(O)c(O)c(OC(=O)c4cc(O)c(O)c(OC(=O)c5cc(O)c(O)c(O)c5)c4)c3)cc(O)c2O)cc(O)c1O)c1cc(O)c(O)c(O)c1` [Compound 119, (2R,3R,4S,5R)-tetrahydro-2H-pyran-2,3,4,5-tetrayl tetrakis(3-((3,4-dihydroxy-5-((3,4,5-trihydroxybenzoyl)oxy)benzoyl)oxy)-4,5-dihydroxybenzoate)] and `O=C(OC[C@H]1O[C@@H](OC(=O)c2cc(O)c(O)c(OC(=O)c3cc(O)c(O)c(OC(=O)c4cc(O)c(O)c(OC(=O)c5cc(O)c(O)c(O)c5)c4)c3)c2)[C@H](OC(=O)c2cc(O)c(O)c(OC(=O)c3cc(O)c(O)c(OC(=O)c4cc(O)c(O)c(OC(=O)c5cc(O)c(O)c(O)c5)c4)c3)c2)[C@@H]1OC(=O)c1cc(O)c(O)c(OC(=O)c2cc(O)c(O)c(OC(=O)c3cc(O)c(O)c(OC(=O)c4cc(O)c(O)c(O)c4)c3)c2)c1)c1cc(O)c(O)c(OC(=O)c2cc(O)c(O)c(OC(=O)c3cc(O)c(O)c(OC(=O)c4cc(O)c(O)c(O)c4)c3)c2)c1` [Compound 146, (2S,3R,4R,5R)-5-(((3-((3-((3,4-dihydroxy-5-((3,4,5-trihydroxybenzoyl)oxy)benzoyl)oxy)-4,5-dihydroxybenzoyl)oxy)-4,5-dihydroxybenzoyl)oxy)methyl)tetrahydrofuran-2,3,4-triyl tris(3-((3-((3,4-dihydroxy-5-((3,4,5-trihydroxybenzoyl)oxy)benzoyl)oxy)-4,5-dihydroxybenzoyl)oxy)-4,5-dihydroxybenzoate)] are within 0.2 log units of each other in pIC50: 8.30 for the first, 8.40 for the second.

`O=C(OC[C@H]1O[C@H](OC(=O)c2cc(O)c(O)c(OC(=O)c3cc(O)c(O)c(OC(=O)c4cc(O)c(O)c(O)c4)c3)c2)[C@H](OC(=O)c2cc(O)c(O)c(OC(=O)c3cc(O)c(O)c(OC(=O)c4cc(O)c(O)c(O)c4)c3)c2)[C@@H]1OC(=O)c1cc(O)c(O)c(OC(=O)c2cc(O)c(O)c(OC(=O)c3cc(O)c(O)c(O)c3)c2)c1)c1cc(O)c(O)c(OC(=O)c2cc(O)c(O)c(OC(=O)c3cc(O)c(O)c(O)c3)c2)c1` [Compound 136, (2R,3R,4R,5R)-5-(((3-((3,4-dihydroxy-5-((3,4,5-trihydroxybenzoyl)oxy)benzoyl)oxy)-4,5-dihydroxybenzoyl)oxy)methyl)tetrahydrofuran-2,3,4-triyl tris(3-((3,4-dihydroxy-5-((3,4,5-trihydroxybenzoyl)oxy)benzoyl)oxy)-4,5-dihydroxybenzoate)] and `O=C(Oc1cc(OC(=O)c2cc(O)c(O)c(OC(=O)c3cc(O)c(O)c(OC(=O)c4cc(O)c(O)c(OC(=O)c5cc(O)c(O)c(OC(=O)c6cc(O)c(O)c(O)c6)c5)c4)c3)c2)cc(OC(=O)c2cc(O)c(O)c(OC(=O)c3cc(O)c(O)c(OC(=O)c4cc(O)c(O)c(OC(=O)c5cc(O)c(O)c(OC(=O)c6cc(O)c(O)c(O)c6)c5)c4)c3)c2)c1)c1ccccc1` [Compound 103, 5-(benzoyloxy)-1,3-phenylene bis(3-((3-((3-((3,4-dihydroxy-5-((3,4,5-trihydroxybenzoyl)oxy)benzoyl)oxy)-4,5-dihydroxybenzoyl)oxy)-4,5-dihydroxybenzoyl)oxy)-4,5-dihydroxybenzoate)] are within 0.2 log units of each other in pIC50: 8.22 for the first, 8.15 for the second.
